# Assay results published in US20080027014A1, “Novel SGLT inhibitors” (Tanabe Seiyaku Co., Ltd., priority 2006, published 2008).
# Columns and labels:
# human SGLT2 = molecular target: T1, human SGLT2 (Homo sapiens, UniProt P31639); assay: Assay for SGLT2 inhibition (14C-AMG uptake in CHOK1 cells expressing human SGLT2); type: cell-based; conditions: CHOK1 cells expressing human SGLT2, 14C-AMG uptake 0.5 mM, 2 hours at 37° C.
# T1 construct: expressed in transfected cells; host or cells: CHOK1 cells (kept under Geneticin selection)
# T1 sequence (P31639 1-672): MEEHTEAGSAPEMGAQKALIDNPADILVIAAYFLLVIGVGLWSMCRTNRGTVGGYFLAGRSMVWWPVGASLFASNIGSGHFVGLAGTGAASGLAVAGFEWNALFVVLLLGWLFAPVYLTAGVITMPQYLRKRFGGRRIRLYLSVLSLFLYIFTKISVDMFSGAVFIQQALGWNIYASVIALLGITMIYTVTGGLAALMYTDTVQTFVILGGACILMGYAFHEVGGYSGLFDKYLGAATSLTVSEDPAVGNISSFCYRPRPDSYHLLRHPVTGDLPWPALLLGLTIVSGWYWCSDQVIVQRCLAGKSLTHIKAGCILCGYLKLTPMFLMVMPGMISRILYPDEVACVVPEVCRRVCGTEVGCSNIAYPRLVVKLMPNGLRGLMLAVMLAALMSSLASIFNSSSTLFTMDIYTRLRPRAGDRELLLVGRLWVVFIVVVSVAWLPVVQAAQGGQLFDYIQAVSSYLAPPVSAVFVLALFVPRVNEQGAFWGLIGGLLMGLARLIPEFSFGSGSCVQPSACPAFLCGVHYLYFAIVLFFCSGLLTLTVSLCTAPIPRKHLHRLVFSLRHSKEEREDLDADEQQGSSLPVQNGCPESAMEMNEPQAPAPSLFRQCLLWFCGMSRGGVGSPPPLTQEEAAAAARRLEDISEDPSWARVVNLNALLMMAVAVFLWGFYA
# Method: 1. Assay for SGLT2 Inhibition
# Compounds described in the above examples were used for the SGLT2 inhibition assay.
# CHOK1 cells expressing human SGLT2 were seeded in 24-well plates at a density of 400,000 cells/well in F-12 nutrient mixture (Ham's F-12) containing 10% fetal bovine serum, 400 μg/ml Geneticin, 50 units/ml sodium penicillin G (Gibco-BRL) and 50 μg/ml streptomycin sulfate. After 2 days of culture at 37° C. in a humidified atmosphere containing 5% CO2, cells were washed once with the assay buffer (137 mM NaCl, 5 mM KCl, 1 mM CaCl2, 1 mM MgCl2, 50 mM Hepes, and 20 mM Tris, pH 7.4) and incubated with 250 μl of the buffer containing test compounds for 10 min at 37° C. Test compounds were dissolved in DMSO. The final concentration of DMSO was 0.5%. The transport reaction was initiated by addition of 50 μl [^14C]-methyl-α-D-glucopyranoside (^14C-AMG) solution (final concentration, 0.5 mM). After incubation for 2 hours at 37° C., the uptake was stopped by aspiration of the incubation mixture, the cells were washed three times with ice-cold PBS. Then, cells were solubilized with 0.3 N NaOH and aliquots were taken for determination of radioactivity by a liquid scintillation counter. Nonspecific AMG uptake was defined as that which occurred in the presence of 100 μM of phlorizin, a specific inhibitor of sodium-dependent glucose cotransporter. Specific uptake was normalized for the protein concentrations measured by the method of Bradford. The 50% inhibitory concentration (IC50) values were calculated from dose-response curves by least square method.
# [1] = system: male Sprague-Dawley (SD) rats; assay: Urinary glucose excretion test in rats; type: in vivo, rat; conditions: 30 mg/kg by oral gavage, urine collected for 24 hours, daily amount of glucose excreted per individual
# Method: 2. Urinary Glucose Excretion Test in Rats
# Compounds described in the above examples were used for the Urinary glucose excretion test in rats.
# 6-week-old male Sprague-Dawley (SD) rats were housed in individual metabolic cages with free access to food and water from 2 days prior to the experiment. On the morning of the experiment, rats were administered vehicle (0.2% carboxymethyl cellulose solution containing 0.2% Tween80) or test compounds (30 mg/kg) by oral gavage at a volume of 10 ml/kg. Then, urine of the rat was collected for 24 hours, and the urine volume was measured. Subsequently, the glucose concentration in urine was quantified using the enzymatic assay kit and the daily amount of glucose excreted in urine per individual was calculated.
# diabetic animal models = conditions: continuous subcutaneous administration; cited from earlier work
Compound,IC50 (human SGLT2) [µM],other results
"CCc1ccc(Cc2cn([C@@H]3S[C@H](CO)[C@@H](O)[C@H](O)[C@H]3O)c3ccccc23)cc1 [Example 1, 3-(4-Ethylphenylmethyl)-1-(5-thio-β-D-glucopyranosyl)indole]",0.18,–
"CCc1ccc(Cc2cn([C@@H]3S[C@H](CO)[C@@H](O)[C@H](O)[C@H]3O)c3cccc(Cl)c23)cc1 [Example 2, 4-Chloro-3-(4-ethylphenylmethyl)-1-(5-thio-β-D-glucopyranosyl)indole]",0.021,Urinary glucose [1]: B (2400 mg>B≧2000 mg)
"OC[C@H]1O[C@@H](c2ccc(Cl)c(Cc3cc4ccccc4s3)c2)[C@H](O)[C@@H](O)[C@H]1F [Example 5, 3-(Benzo[b]thiophen-2-ylmethyl)-4-chloro-1-(4-fluoro-4-deoxy-β-D-galactopyranosyl)benzene]",0.0053,Urinary glucose [1]: A (A≧2400 mg); melting point: 153 to 154 °C
"O[C@@H]1[C@@H](O)[C@H](c2ccc(Cl)c(Cc3ccc(-c4ccccc4)s3)c2)O[C@H](CF)[C@H]1O [Example 6, 4-Chloro-3-(5-phenyl-2-thienylmethyl)-1-(6-fluoro-6-deoxy-β-D-glucopyranosyl)benzene]",0.031,–
OC[C@H]1S[C@@H](n2cc(Cc3ccc4occc4c3)c3c(Cl)cccc32)[C@H](O)[C@@H](O)[C@@H]1O [Example 8],0.041,–
CSc1ccc(Cc2cn([C@@H]3S[C@H](CO)[C@@H](O)[C@H](O)[C@H]3O)c3cccc(Cl)c23)cc1 [Example 10],0.022,–
OC[C@H]1S[C@@H](n2cc(Cc3ccc(Cl)cc3)c3c(Cl)cccc32)[C@H](O)[C@@H](O)[C@@H]1O [Example 13],0.11,–
OC[C@H]1S[C@@H](n2cc(Cc3ccc(Br)cc3)c3c(Cl)cccc32)[C@H](O)[C@@H](O)[C@@H]1O [Example 14],0.097,–
COc1ccc(Cc2cn([C@@H]3S[C@H](CO)[C@@H](O)[C@H](O)[C@H]3O)c3cccc(Cl)c23)cc1 [Example 15],0.015,–
OC[C@H]1S[C@@H](n2cc(Cc3ccc4ccccc4c3)c3c(Cl)cccc32)[C@H](O)[C@@H](O)[C@@H]1O [Example 16],0.13,–
OC[C@H]1S[C@@H](n2cc(Cc3ccc(I)cc3)c3c(F)cccc32)[C@H](O)[C@@H](O)[C@@H]1O [Example 17],0.063,–
OC[C@H]1S[C@@H](n2cc(Cc3ccc4occc4c3)c3c(F)cccc32)[C@H](O)[C@@H](O)[C@@H]1O [Example 18],0.19,–
CCOc1ccc(Cc2cn([C@@H]3S[C@H](CO)[C@@H](O)[C@H](O)[C@H]3O)c3cccc(C)c23)cc1 [Example 19],0.046,–
Cc1cccc2c1c(Cc1ccc(Cl)cc1)cn2[C@@H]1S[C@H](CO)[C@@H](O)[C@H](O)[C@H]1O [Example 20],0.18,–
N#Cc1cccc(-c2ccc(Cc3cn([C@@H]4S[C@H](CO)[C@@H](O)[C@H](O)[C@H]4O)c4cccc(Cl)c34)s2)c1 [Example 22],0.21,–
OC[C@H]1S[C@@H](n2cc(Cc3ccc(Br)s3)c3c(Cl)cccc32)[C@H](O)[C@@H](O)[C@@H]1O [Example 23],0.17,–
CCc1ccc(Cc2cn([C@@H]3S[C@H](CO)[C@@H](O)[C@H](O)[C@H]3O)c3cccc(Cl)c23)s1 [Example 25],0.067,–
OC[C@H]1S[C@@H](n2cc(Cc3ccc(-c4ccc(F)nc4)s3)c3c(Cl)cccc32)[C@H](O)[C@@H](O)[C@@H]1O [Example 26],0.19,–
Cc1cccc2c1c(Cc1ccc(C3CC3)cc1)cn2[C@@H]1S[C@H](CO)[C@@H](O)[C@H](O)[C@H]1O [Example 28],0.019,–
OC[C@H]1S[C@@H](n2cc(Cc3ccc(OC(F)F)cc3)c3c(Cl)cccc32)[C@H](O)[C@@H](O)[C@@H]1O [Example 30],0.054,–
OC[C@H]1S[C@@H](n2cc(Cc3ccc(-c4cccs4)cc3)c3c(F)cccc32)[C@H](O)[C@@H](O)[C@@H]1O [Example 31],0.15,–
OC[C@H]1S[C@@H](n2cc(Cc3ccc(-c4ccccn4)s3)c3c(Cl)cccc32)[C@H](O)[C@@H](O)[C@@H]1O [Example 33],0.01,–
OC[C@H]1S[C@@H](n2cc(Cc3ccc(C(F)F)cc3)c3c(Cl)cccc32)[C@H](O)[C@@H](O)[C@@H]1O [Example 34],0.035,–
OC[C@H]1O[C@@H](c2ccc(Cl)c(Cc3cc4ccccc4s3)c2)[C@H](O)[C@@H](O)[C@H]1O [Example 35],0.017,–
CCc1ccc(Cc2cn([C@@H]3O[C@H](CO)[C@@H](F)[C@H](O)[C@H]3O)c3ncccc23)cc1 [Example 36],0.12,–
O=C(CCc1ccc(O)cc1)c1c(O)cc(O)cc1O[C@@H]1O[C@H](CO)[C@@H](O)[C@H](O)[C@H]1O [phlorizin],–,blood glucose level (diabetic animal models): normalized
